Source: patent US20080227813A1, “Pharmaceutical compositions and methods for treating diseases associated with neurodegeneration” (priority 2006, published 2008)

How the values were obtained:
[1] = 28-day repeated dose oral toxicokinetic study in rats; conditions: for Tmax: rat, in vivo, po
Procedure: A 28-day repeated dose oral toxicokinetic study of Compound I was performed in rats involving dose groups of 375 mg/kg, 750 mg/kg and 1500 mg/kg/day (equal to 233 mg/kg, 465 mg/kg and 930 mg/kg free base) (n=5 animals/sex/group). Blood samples were taken after the first and after the last doses to determine the kinetic parameters.

CRL:NMRI BR mice [2] = assay: Acute oral toxicity in mice; type: in vivo; conditions: mouse
Procedure: All animal toxicology studies were performed at Toxicological Research Centre (Veszprém, Hungary) using protocols compliant with OECD guidelines and Principles of Good Laboratory Practice. Following is a summary of the studies conducted.
Acute oral toxicity studies were performed in rats (CRL(WI:)BR) and in mice (CRL: NMRI BR). A control and five dose groups were involved in the rat study at dose levels of 2000 mg/kg, 2600 mg/kg, 3400 mg/kg, 4400 mg/kg and 5700 mg/kg (equal to 1241 mg/kg, 1613 mg/kg, […], 2729 mg/kg and 3535 mg/kg free base, n=5 animals/sex/group).

CRL:(WI)BR rats [3] = assay: Acute intraperitoneal toxicity in rats; type: in vivo; conditions: rat
Procedure: (§1) Acute intraperitoneal toxicity studies were performed in rats (CRL(WI:)BR) and in mice (CRL: NMRI BR).
A control and five dose groups were involved in the rat study at dose levels of 500 mg/kg, 650 mg/kg, 800 mg/kg, 950 mg/kg and 1200 mg/kg (equal to 310 mg/kg, 403 mg/kg, 496 mg/kg, 589 mg/kg and 744 mg/kg free base, n=5 animals/sex/group).

CRL:NMRI BR mice [4] = assay: Acute intraperitoneal toxicity in mice; type: in vivo; conditions: mouse
Procedure: as §1
In the case of the mouse study a control and five dose groups were involved at dose levels of 850 mg/kg, 1100 mg/kg, 1500 mg/kg, 1900 mg/kg and 2600 mg/kg (equal to 527 mg/kg, 682 mg/kg, 930 mg/kg, 1178 mg/kg and 1613 mg/kg free base, n=5 animals/sex/group).

CRL:(WI)BR rats [5] = assay: Acute intravenous toxicity in rats; type: in vivo; conditions: rat
Procedure: A control and five dose groups were involved in the rat study at dose levels of 150 mg/kg, 200 mg/kg, 250 mg/kg, 300 mg/kg and 350 mg/kg (equal to 93 mg/kg, 124 mg/kg, 155 mg/kg, 186 mg/kg and 217 mg/kg free base, n=5 animals/sex/group).

Beagle dogs [6] = assay: 28-day repeated dose oral toxicity study in dogs; type: in vivo, dog; conditions: for No observed adverse effect level (NOAEL): Beagle dogs male and female, 28-day oral
Procedure: The control animals were treated in the same manner with placebo gelatin capsules.
Pre-treatment: hematological, clinical chemistry and ECG investigations and opthalmoscopic examinations were performed.
During the treatment period: check of mortality and clinical observation were performed at least twice daily and weighing the non-consumed food was performed daily. The body weights of animals were measured once a week. At the end of the treatment, hematological laboratory and ECG investigations, opthalmoscopic examinations, gross necropsy, histopathological and histometrical examinations were performed.

Beagle dogs [7] = assay: 110-day repeated dose oral toxicity study in dogs; type: in vivo, dog
Procedure: Evaluation […] involving control and three dose groups of 50, 80 and 160 mg/kg/day (equal to 31.0 mg/kg, 49.6 mg/kg and 99.2 mg/kg free base).

[8] = test system: Salmonella typhimurium strains TA98, TA100, TA1537, TA1535 and Escherichia coli WP2 uvrA; assay: Genotoxicity in bacterial assays; type: cell-based; conditions: up to 5000 μg test item/plate, with and without rat liver fraction
CRL: NMRI BR mice = conditions: mouse, 5000 mg/kg
Procedure: On the basis of acute oral toxicity of test item Compound I in CRL: NMRI BR mice the dose level 5000 mg/kg (equal to 3101 mg/kg free base) was examined in the micronucleus test.

[9] = rat, in vivo
[10] = rat, in vivo; remark: listed apart in the source
Procedure: The pharmacokinetic properties of total radioactivity were studied in male and female Wistar rats at the dose of 25.8 mg/kg ^14C labeled Compound I (equal to 16 mg/kg free base) administered intravenously and orally (Study B: Compound I/PRE SK-007). The concentrations of total radioactivity were monitored by liquid scintillation counting and whole-body autoradiographic methods in serum, organs, tissues, and excreta. All parts of the study were performed in both sexes (n=5 in both sexes).

[11] = dog, 70-210 mg/kg/day oral, 28 days
[12] = dog, 50, 80, 160 mg/kg/day oral

[O-][n+]1cccc(/C(Cl)=N/OC[C@H](O)CN2CCCCC2)c1 [Compound I, N-[2-hydroxy-3-(1-piperidinyl)-propoxy]-pyridine-1-oxide-3-carboximidoyl chloride]
Cmax ([1]; male rats, 750 mg/kg/day oral, Day 28): 20410 ng/mL | Tmax ([1]; 375 mg/kg): 1 h | Tmax ([1]; 375 mg/kg/day): 0.5 h | Tmax ([1]; 750 mg/kg): 2 h | Tmax ([1]; 1500 mg/kg): 2 h | Oral LD50 value (CRL:NMRI BR mice [2]; female, by base): >3101 - by base mg/kg | Oral LD50 value (CRL:NMRI BR mice [2]; female, by citrate): >5000 - by citrate mg/kg | Oral LD50 value (CRL:NMRI BR mice [2]; male, by base): >3101 - by base mg/kg | Oral LD50 value (CRL:NMRI BR mice [2]; male, by citrate): >5000 - by citrate mg/kg | Intraperitoneal LD50 value (CRL:(WI)BR rats [3]; female, by base): 770 - by base mg/kg | Intraperitoneal LD50 value (CRL:(WI)BR rats [3]; female, by citrate): 1241 - by citrate mg/kg | Intraperitoneal LD50 value (CRL:(WI)BR rats [3]; male, by base): 698 (577-3871) by base mg/kg | Intraperitoneal LD50 value (CRL:(WI)BR rats [3]; male, by citrate): 1125 (931-6241) by citrate mg/kg | Intraperitoneal LD50 value (CRL:NMRI BR mice [4]; female, by base): 738 - by base mg/kg | Intraperitoneal LD50 value (CRL:NMRI BR mice [4]; female, by citrate): 1189 - by citrate mg/kg | Intraperitoneal LD50 value (CRL:NMRI BR mice [4]; male, by base): 839 (674-1023) by base mg/kg | Intravenous LD50 value (CRL:(WI)BR rats [5]; female, by base): 215 (190-764) by base mg/kg | Intravenous LD50 value (CRL:(WI)BR rats [5]; female, by citrate): 346 (306-1232) by citrate mg/kg | Intravenous LD50 value (CRL:(WI)BR rats [5]; male, by base): 197 (168-301) by base mg/kg | Intravenous LD50 value (CRL:(WI)BR rats [5]; male, by citrate): 317 (271-485) by citrate mg/kg | No observed adverse effect level (NOAEL) (Beagle dogs [6]; by base): 43.4 mg/kg/day | No observed adverse effect level (NOAEL) (Beagle dogs [6]; by citrate): 70 mg/kg/day | ECG and ophthalmologic alterations (Beagle dogs [6]; [11]): did not cause ECG and opthalmologic alterations | mortality (Beagle dogs [6]; [11]): No deaths occurred | ECG and ophthalmological alterations (Beagle dogs [7]; [12]): No ECG and opthalmological alterations | mortality (Beagle dogs [7]; [12]): No animals died | NOEL (Beagle dogs [7]; dog, both sexes, oral once daily for 112 days): 50 mg/kg/day | mutagenic activity [8]: no mutagenic activity | mutagenicity in vivo (CRL: NMRI BR mice): non-mutagenic | number of micronucleated polychromatic erythrocytes (MPCEs) (CRL: NMRI BR mice; in vivo): did not induce a significant increase | clearance [9]: higher than the hepatic clearance | time of peak serum values ([9]; po, 25.8 mg/kg): 15 min | dose eliminated with bile [10]: 20-30 % of dose | dose remaining in the rats [10]: ~20% | radioactivity by 3rd post-treatment hour, share of first measured concentration ([10]; iv, 25.8 mg/kg): 20% | organ radioactivity at 4th hour, share of 45 min values ([10]; po): 20-60% | penetration through the blood-brain barrier ([10]; po): weak penetration through the blood-brain barrier | increase of radioactivity in organs and tissues ([10]; po, 25.8 mg/kg): 4-12 fold | time of first maximal serum concentration of radioactivity ([10]; po, 25.8 mg/kg): ≤ 1 h | total exposure of last day (0-24 h AUD) vs first day ([10]; po, 25.8 mg/kg): more than two times higher | amount of metabolite No. 1 (rat hepatocytes): 0.32 % of the total radioactivity | amount of metabolite No. 2 (rat hepatocytes): 1.89 % of the total radioactivity | amount of metabolite No. 3 (rat hepatocytes): 47.7 % of the total radioactivity | amount of metabolite No. 4 (rat hepatocytes): 15.1 % of the total radioactivity | clearance (rat hepatocytes; rat, hepatocytes): 0.84 mL/h | t1/2 (rat hepatocytes; rat, hepatocytes): 0.82 h
